This note sets out measurements from ChEMBL document CHEMBL1141831, “Alertenone, a dimer of suberosenone from Alertigorgia sp” (J Nat Prod, 1999).

Values after ≈ are worked out from the molar mass of the structure shown.

One test relates to MCF7. The experiment in a line: Cytotoxicity against human MCF7 cells after 2 days by XTT assay. The class given is functional, cell-based. Conditions: MCF7, 48 h.
A further test deals with SF-295. The experiment in a line: Cytotoxicity against human SF-295 cells after 2 days by XTT assay. The class given is functional, cell-based. To be noted: SF-295, 48 h.
Another test relates to HOP-92. The experiment in a line: Cytotoxicity against human HOP-92 cells after 2 days by XTT assay. The class given is functional, cell-based. To be noted: HOP-92, 48 h.
The test system of the next test is OVCAR-3. The experiment in a line: Cytotoxicity against human OVCAR-3 cells after 2 days by XTT assay. The class given is functional, cell-based. Conditions: OVCAR-3, 48 h.
A further test deals with A549. The experiment in a line: Cytotoxicity against human A549 cells after 2 days by XTT assay. The test is classed as functional, cell-based. Conditions: A549, 48 h.
For the next test, the system named is M14. The test is described as follows: Cytotoxicity against human M14 cells after 2 days by XTT assay. Conditions: M14, 48 h. The test is classed as functional, cell-based.
The test system of a further test is SF-539. The test is described as follows: Cytotoxicity against human SF-539 cells after 2 days by XTT assay. Conditions: SF-539, 48 h. The test is classed as functional, cell-based.
Test [1] is described as follows: Cytotoxicity against human LOX cells after 2 days by XTT assay. The test is classed as functional, cell-based. Conditions: 48 h.
In another test the test system is SNB-19. The test is described as follows: Cytotoxicity against human SNB-19 cells after 2 days by XTT assay. The test is classed as functional, cell-based. Conditions: SNB-19, 48 h.
The next test deals with Malme-3M. The test is described as follows: Cytotoxicity against human MALME-3M cells after 2 days by XTT assay. The test is classed as functional, cell-based. To be noted: 48 h.
The test system of another test is U-251. The experiment in a line: Antitumor activity against human U251 cells xenografted in mouse assessed as cell growth at 40 mg/kg by hollow-fiber assay relative to control. The test is classed as functional.
For another test, the system named is NCI-H522. The test is described as follows: Antitumor activity against human NCI-H522 cells xenografted in mouse assessed as cell growth at 40 mg/kg by hollow-fiber assay relative to control. The class given is functional.

Turning to `C=C1C(=O)[C@H](C[C@@H]2C(=O)C[C@H]3[C@@H]4CC[C@H](C)[C@]23CC4(C)C)[C@H]2[C@@H]3CC[C@H](C)[C@]12CC3(C)C` [ALERTENONE], the IC50 in the test on MCF7 is 40 µg/mL (≈ 91.6 µM); in the test with SF-295, 35 µg/mL (≈ 80.2 µM); in the test on HOP-92, 45 µg/mL (≈ 103 µM); with OVCAR-3, 35 µg/mL (≈ 80.2 µM); in the test with A549 it was 40 µg/mL (≈ 91.6 µM); with M14 it was 40 µg/mL (≈ 91.6 µM). For the same compound, the IC50 in the test on SF-539 was 35 µg/mL (≈ 80.2 µM); in [1], greater than 100 µg/mL; in the test with SNB-19, 45 µg/mL (≈ 103 µM); in the test on Malme-3M, 40 µg/mL (≈ 91.6 µM).
Turning to `C=C1C(=O)C[C@H]2[C@@H]3CC[C@H](C)[C@]12CC3(C)C` [SUBEROSENONE], the Activity with U-251 and with NCI-H522 was 10% throughout. In addition, the IC50 was determined as 0.43 µg/mL (≈ 1.97 µM) with MCF7; 0.03 µg/mL (≈ 0.137 µM) in the test on SF-295; 0.11 µg/mL (≈ 0.504 µM) in the test on HOP-92; 0.02 µg/mL (≈ 0.0916 µM) with OVCAR-3; 1.63 µg/mL (≈ 7.47 µM) in the test on A549; 0.01 µg/mL (≈ 0.0458 µM) with M14. For the same compound, the IC50 with SF-539 worked out at 0.002 µg/mL (≈ 0.00916 µM); in test [1], 0.006 µg/mL (≈ 0.0275 µM); in the test on SNB-19 it was 0.006 µg/mL (≈ 0.0275 µM); in the test with Malme-3M, 0.008 µg/mL (≈ 0.0366 µM).
